Source: paper PMC10498452, “Targeted Protein Degradation: Advances, Challenges, and Prospects for Computational Methods” (Journal of Chemical Information and Modeling, 2023)

Tests used:
[1] = target: T1, SMARCA2 (Homo sapiens, UniProt P51531); assay: HiBiT assay, degradation profiles; type: cell-based; conditions: VHL-recruiting degrader
T1 construct: luminescence-based reporter assays with endogeneous HiBiT-tagged proteins have been developed that yield degradation profiles; endogenous in cells
T1 sequence (P51531 whole entry): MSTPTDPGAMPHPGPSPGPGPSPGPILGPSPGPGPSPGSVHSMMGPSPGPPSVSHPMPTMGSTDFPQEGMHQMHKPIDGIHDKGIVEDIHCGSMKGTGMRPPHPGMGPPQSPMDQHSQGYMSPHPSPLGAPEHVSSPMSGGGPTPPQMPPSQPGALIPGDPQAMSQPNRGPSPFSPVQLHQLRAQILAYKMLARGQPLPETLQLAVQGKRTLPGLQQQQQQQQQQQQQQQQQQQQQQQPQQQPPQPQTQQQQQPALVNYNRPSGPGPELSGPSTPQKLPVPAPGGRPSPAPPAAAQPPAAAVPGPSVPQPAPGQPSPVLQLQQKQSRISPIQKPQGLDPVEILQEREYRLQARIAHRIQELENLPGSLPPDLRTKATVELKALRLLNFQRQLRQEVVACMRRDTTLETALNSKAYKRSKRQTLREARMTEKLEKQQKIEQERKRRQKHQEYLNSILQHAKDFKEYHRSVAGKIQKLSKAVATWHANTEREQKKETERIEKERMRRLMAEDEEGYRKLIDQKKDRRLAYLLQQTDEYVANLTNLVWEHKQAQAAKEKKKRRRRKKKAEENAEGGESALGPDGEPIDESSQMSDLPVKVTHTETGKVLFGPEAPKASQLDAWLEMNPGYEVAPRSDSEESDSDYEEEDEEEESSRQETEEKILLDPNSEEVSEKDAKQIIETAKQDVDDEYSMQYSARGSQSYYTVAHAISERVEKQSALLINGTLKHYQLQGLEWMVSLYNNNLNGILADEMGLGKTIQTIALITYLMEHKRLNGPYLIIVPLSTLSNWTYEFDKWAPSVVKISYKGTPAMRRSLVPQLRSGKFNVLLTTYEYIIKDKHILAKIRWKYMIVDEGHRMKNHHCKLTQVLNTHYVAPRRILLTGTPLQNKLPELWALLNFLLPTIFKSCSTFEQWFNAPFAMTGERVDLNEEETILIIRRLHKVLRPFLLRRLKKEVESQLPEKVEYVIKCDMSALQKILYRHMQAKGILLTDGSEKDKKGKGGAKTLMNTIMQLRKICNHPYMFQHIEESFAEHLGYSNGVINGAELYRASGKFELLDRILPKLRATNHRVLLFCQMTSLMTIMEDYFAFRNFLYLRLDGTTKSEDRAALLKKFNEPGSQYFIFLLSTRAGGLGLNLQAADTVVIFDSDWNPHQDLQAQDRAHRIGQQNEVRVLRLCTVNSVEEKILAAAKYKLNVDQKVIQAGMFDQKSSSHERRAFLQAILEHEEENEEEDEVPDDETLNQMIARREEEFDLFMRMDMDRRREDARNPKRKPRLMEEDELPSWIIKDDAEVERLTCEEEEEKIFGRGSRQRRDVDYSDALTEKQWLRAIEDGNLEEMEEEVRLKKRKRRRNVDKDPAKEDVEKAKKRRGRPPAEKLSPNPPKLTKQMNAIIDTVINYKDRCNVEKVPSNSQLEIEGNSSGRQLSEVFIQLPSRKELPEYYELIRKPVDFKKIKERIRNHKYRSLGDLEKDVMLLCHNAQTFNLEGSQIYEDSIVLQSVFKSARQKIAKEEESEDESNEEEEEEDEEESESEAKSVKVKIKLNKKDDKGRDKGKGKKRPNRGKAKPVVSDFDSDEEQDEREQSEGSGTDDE
From the text: To monitor the intracellular degradation, luminescence-based reporter assays with endogeneous HiBiT-tagged proteins have been developed that yield degradation profiles, from which maximum degradation levels (Dmax) as well as the half-maximum degradation concentration (DC50) can be derived to estimate the potency of a degrader molecule,[48] which is instrumental in degrader design (see Section 4.2). As a matter of fact, variants of this technology are applied to characterize the different steps in TPD, such as target engagement, ternary complex formation, and target ubiquitination,[115] providing complementary kinetic information to the other experimental approaches discussed.
Figure 6 lists all of our designs in this study (Linkers 1–6) along with ACBI1, a previously optimized VHL-recruiting degrader of SMARCA2.[28] Informed by the random forest classifier, which was trained and validated on about 100 known compounds (model accuracy of 83%), the designs generally involve rigid linkers that contain (aromatic) ring structures with low molecular weight. […] By contrast, 34 designs that incorporated typical alkyl and PEG linkers spanning 4 to ∼20 atoms as well as known linker moieties, such as triazoles and phenyl rings (o, m, or p-substituted to provide different geometries), only produced two active degraders.
Figure 7 Experimental confirmation of degrader designs. […]

[2] = target: SMARCA2-VHL ternary complex (Homo sapiens, UniProt P40337+P51531); assay: AlphaLISA assay measuring ternary complex formation; type: binding
Sequence of SMARCA2-VHL ternary complex (P51531 1373-1511 limits assumed): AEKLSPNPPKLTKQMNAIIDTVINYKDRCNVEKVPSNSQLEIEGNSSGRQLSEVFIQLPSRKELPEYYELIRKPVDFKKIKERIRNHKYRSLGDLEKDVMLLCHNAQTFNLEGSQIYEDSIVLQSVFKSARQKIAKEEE
Sequence of SMARCA2-VHL ternary complex (P40337 54-213 limits assumed): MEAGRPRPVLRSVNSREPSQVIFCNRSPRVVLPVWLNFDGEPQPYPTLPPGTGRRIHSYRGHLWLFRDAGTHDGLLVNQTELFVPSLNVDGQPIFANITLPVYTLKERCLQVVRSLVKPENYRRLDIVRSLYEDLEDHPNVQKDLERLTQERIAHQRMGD
Sequence of SMARCA2-VHL ternary complex (Q15369 17-112 partner limits assumed): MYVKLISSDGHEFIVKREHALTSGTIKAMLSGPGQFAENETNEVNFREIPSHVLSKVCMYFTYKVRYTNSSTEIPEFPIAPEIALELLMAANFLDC
Sequence of SMARCA2-VHL ternary complex (Q15370 1-104 partner limits assumed): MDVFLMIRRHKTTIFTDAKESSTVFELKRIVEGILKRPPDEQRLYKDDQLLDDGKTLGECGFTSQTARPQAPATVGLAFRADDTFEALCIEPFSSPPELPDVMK
From the text: Competitive-binding and proximity-based assays can also probe the degree of degrader–POI engagement or ternary complex formation (Table 1), thus allowing the determination of binding affinities and cooperativity. These techniques measure changes in the polarization of a fluorescently labeled target protein upon binding to a degrader, as in fluorescence polarization (FP),[85] or detect intensity changes, upon ternary complex formation, in the fluorescence or luminescence signal emitted from beads tagged to the POI or E3 ligase, as in time-resolved Förster resonance energy-transfer (TR-FRET)[86] or in the amplified luminescent proximity homogeneous assay (ALPHA).[87] In the proximity ligation assay (PLA), a technology that is gaining popularity in TPD research, the signal is even further amplified through antibody-attached oligonucleotide hybridization.[88] These methods have been used in TPD studies for the identification of selective degraders and for the high-throughput screening of degrader designs.[39]−[41],[89] In particular, ALPHA has a high dynamic range and signal-to-noise ratio and, when applied in a titration experiment (usually set up as an immunoassay called AlphaLISA), it yields relative populations of ternary complexes as a function of degrader concentration and is routinely employed as a tool in degrader design projects (see Section 4.2). […]

## Cc1ncsc1-c1ccc(CNC(=O)[C@@H]2C[C@@H](O)CN2C(=O)[C@@H](NC(=O)C2(F)CC2)C(C)(C)C)c(OCCOc2ccc(CN3CCN(c4cc(-c5ccccc5O)nnc4N)CC3)cc2)c1 [ACBI1]
[1]
  DC50: 37 nM
  Dmax: 94%
[2]
  AlphaLISA (% of control): 100 % of control
